Data taken from the supplement of paper PMC10307832.

Assays:
Assay in all cases: relative viability (nuclei count vs DMSO), 5 days (fraction); higher = more cells survive
[1] = test system: HOP-62
How it was run: (§1)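 Medians of duplicate plates are given as relative viability. That measure is the nuclei count in treated wells divided by the count in vehicle wells. Counts were taken on 4× images of lung cancer cell lines in 1536-well plates, 5 days after pin-tool dosing the day after seeding with one drug alone or a fixed anchor-drug dose plus five library-drug doses (not always all listed) in √10 steps.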

[2] = test system: NCI-H1792
How it was run: as §1

[3] = test system: NCI-H2009
How it was run: as §1

[4] = test system: LU99A
How it was run: as §1

[5] = test system: NCI-H460
How it was run: as §1

[6] = test system: LXF-289
How it was run: as §1

[7] = test system: NCI-H1915
How it was run: as §1

[8] = test system: SK-LU-1
How it was run: as §1

[9] = test system: COR-L 105
How it was run: as §1

[10] = test system: NCI-H2085
How it was run: as §1

[11] = test system: HCC-366
How it was run: as §1

[12] = test system: EPLC-272H
How it was run: as §1

[13] = test system: NCI-H1793
How it was run: as §1

[14] = test system: UMC-11
How it was run: as §1

[15] = test system: NCI-H1666
How it was run: as §1

[16] = test system: LC-2-ad
How it was run: as §1

[17] = test system: NCI-H2170
How it was run: as §1

[18] = test system: NCI-H1944
How it was run: as §1

[19] = test system: A-427
How it was run: as §1

[20] = test system: HCC-78
How it was run: as §1

SMILES: CC(=O)O[C@@]12CO[C@@H]1C[C@H](O)[C@@]1(C)C(=O)[C@H](O)C3=C(C)[C@@H](OC(=O)[C@H](O)[C@@H](NC(=O)OC(C)(C)C)c4ccccc4)C[C@@](O)([C@@H](OC(=O)c4ccccc4)[C@H]21)C3(C)C [Docetaxel] + CC1(C)CCC(c2ccc(Cl)cc2)=C(CN2CCN(c3ccc(C(=O)NS(=O)(=O)c4ccc(N[C@H](CCN5CCOCC5)CSc5ccccc5)c(S(=O)(=O)C(F)(F)F)c4)cc3)CC2)C1 [Navitoclax] (partner 0.5 µM)
- relative viability ([1]; first compound 0.0002 µM): 0.878
- relative viability ([1]; first compound 0.000632 µM): 0.552
- relative viability ([1]; first compound 0.002 µM): 0.312
- relative viability ([1]; first compound 0.02 µM): 0.0795
- relative viability ([2]; first compound 0.0002 µM): 0.441
- relative viability ([2]; first compound 0.000632 µM): 0.614
- relative viability ([2]; first compound 0.002 µM): 0.437
- relative viability ([2]; first compound 0.02 µM): 0.0744
- relative viability ([3]; first compound 0.0002 µM): 1.15
- relative viability ([3]; first compound 0.000632 µM): 1.19
- relative viability ([3]; first compound 0.002 µM): 0.892
- relative viability ([3]; first compound 0.006325 µM): 0.575
- relative viability ([3]; first compound 0.02 µM): 0.117
- relative viability ([4]; first compound 0.0002 µM): 0.865
- relative viability ([4]; first compound 0.000632 µM): 0.533
- relative viability ([4]; first compound 0.002 µM): 0.277
- relative viability ([4]; first compound 0.006325 µM): 0.201
- relative viability ([4]; first compound 0.02 µM): 0.148
- relative viability ([5]; first compound 0.0002 µM): 0.997
- relative viability ([5]; first compound 0.000632 µM): 0.219
- relative viability ([5]; first compound 0.002 µM): 0.0187
- relative viability ([5]; first compound 0.006325 µM): 0.0123
- relative viability ([5]; first compound 0.02 µM): 0.0104
- relative viability ([6]; first compound 0.0002 µM): 0.96
- relative viability ([6]; first compound 0.000632 µM): 0.796
- relative viability ([6]; first compound 0.002 µM): 0.585
- relative viability ([6]; first compound 0.006325 µM): 0.142
- relative viability ([6]; first compound 0.02 µM): 0.0718
- relative viability ([7]; first compound 0.0002 µM): 0.789
- relative viability ([7]; first compound 0.000632 µM): 0.774
- relative viability ([7]; first compound 0.002 µM): 0.524
- relative viability ([7]; first compound 0.006325 µM): 0.102
- relative viability ([7]; first compound 0.02 µM): 0.0504
- relative viability ([8]; first compound 0.0002 µM): 0.721
- relative viability ([8]; first compound 0.000632 µM): 0.454
- relative viability ([8]; first compound 0.002 µM): 0.141
- relative viability ([8]; first compound 0.006325 µM): 0.215
- relative viability ([8]; first compound 0.02 µM): 0.112
- relative viability ([9]; first compound 0.0002 µM): 0.94
- relative viability ([9]; first compound 0.000632 µM): 0.715
- relative viability ([9]; first compound 0.002 µM): 0.343
- relative viability ([9]; first compound 0.006325 µM): 0.367
- relative viability ([9]; first compound 0.02 µM): 0.26
- relative viability ([10]; first compound 0.0002 µM): 1.05
- relative viability ([10]; first compound 0.000632 µM): 1.03
- relative viability ([10]; first compound 0.002 µM): 0.68
- relative viability ([10]; first compound 0.006325 µM): 0.476
- relative viability ([10]; first compound 0.02 µM): 0.232
- relative viability ([11]; first compound 0.0002 µM): 1.03
- relative viability ([11]; first compound 0.000632 µM): 0.969
- relative viability ([11]; first compound 0.002 µM): 0.0411
- relative viability ([11]; first compound 0.006325 µM): 0.0211
- relative viability ([11]; first compound 0.02 µM): 0.0135
- relative viability ([12]; first compound 0.0002 µM): 1.12
- relative viability ([12]; first compound 0.000632 µM): 0.889
- relative viability ([12]; first compound 0.002 µM): 0.374
- relative viability ([12]; first compound 0.006325 µM): 0.126
- relative viability ([12]; first compound 0.02 µM): 0.0732
- relative viability ([13]; first compound 0.0002 µM): 0.337
- relative viability ([13]; first compound 0.000632 µM): 0.432
- relative viability ([13]; first compound 0.002 µM): 0.292
- relative viability ([13]; first compound 0.006325 µM): 0.228
- relative viability ([13]; first compound 0.02 µM): 0.131
- relative viability ([14]; first compound 0.0002 µM): 0.314
- relative viability ([14]; first compound 0.000632 µM): 0.271
- relative viability ([14]; first compound 0.002 µM): 0.155
- relative viability ([14]; first compound 0.006325 µM): 0.131
- relative viability ([14]; first compound 0.02 µM): 0.105
- relative viability ([15]; first compound 0.0002 µM): 0.646
- relative viability ([15]; first compound 0.000632 µM): 0.565
- relative viability ([15]; first compound 0.002 µM): 0.354
- relative viability ([15]; first compound 0.006325 µM): 0.302
- relative viability ([15]; first compound 0.02 µM): 0.186
- relative viability ([16]; first compound 0.0002 µM): 0.237
- relative viability ([16]; first compound 0.000632 µM): 0.18
- relative viability ([16]; first compound 0.002 µM): 0.114
- relative viability ([16]; first compound 0.006325 µM): 0.0942
- relative viability ([16]; first compound 0.02 µM): 0.0914
- relative viability ([17]; first compound 0.0002 µM): 0.569
- relative viability ([17]; first compound 0.000632 µM): 0.49
- relative viability ([17]; first compound 0.002 µM): 0.237
- relative viability ([17]; first compound 0.006325 µM): 0.213
- relative viability ([17]; first compound 0.02 µM): 0.15
- relative viability ([18]; first compound 0.0002 µM): 1.07
- relative viability ([18]; first compound 0.000632 µM): 1.05
- relative viability ([18]; first compound 0.002 µM): 0.942
- relative viability ([18]; first compound 0.006325 µM): 0.297
- relative viability ([18]; first compound 0.02 µM): 0.155
- relative viability ([19]; first compound 0.0002 µM): 0.987
- relative viability ([19]; first compound 0.000632 µM): 0.926
- relative viability ([19]; first compound 0.002 µM): 0.641
- relative viability ([19]; first compound 0.006325 µM): 0.26
- relative viability ([19]; first compound 0.02 µM): 0.181
- relative viability ([20]; first compound 0.0002 µM): 0.75
- relative viability ([20]; first compound 0.000632 µM): 0.455
- relative viability ([20]; first compound 0.002 µM): 0.244
- relative viability ([20]; first compound 0.006325 µM): 0.242
- relative viability ([20]; first compound 0.02 µM): 0.158
